Laboratory results as given in US20150283120A1, “ANTIBIOTIC METHODS AND COMPOSITIONS FOR BACTERIA INFECTIONS” (THE UNIVERSITY OF CHICAGO, priority 2012, published 2015).
“Also recorded” adds a separate entry of the source. Counter-ions that a name gives are not always drawn. Like-named read-outs stand apart in the source and are kept apart here.

What was measured:
[1] = test system: test strain (923 pPvra-lux); assay: Primary screen: growth (OD) of test strain with compound, with and without oxacillin; assay type: cell-based, Staphylococcus aureus; settings: compound 10 μM, with and without oxacillin 2 μg/mL; OD at 24 h; library screened twice
MRSA strain 8004-01 = assay: Checkerboard oxacillin + compound, strain 8004-01; set-up: MIC OX / MIC OX (+) / MIC cmpd alone: unit not given beside the values; settings: strain 8004-1 (ST239); for MIC cmpd +: compound in combination with oxacillin; for FICi: oxacillin + compound; for MIC OX (+): oxacillin in combination with compound
[2] = test system: vraSR operon (vra promoter, Pvra::lux); assay: Primary screen: Pvra-lux luminescence (vraSR induction); assay type: cell-based, Staphylococcus aureus; settings: compound 10 μM, oxacillin 2 μg/mL; luminescence at 2 hours; library screened twice
vraR transcription = assay: Tertiary screen: qRT-PCR of vraR in strain 923; assay type: cell-based, Staphylococcus aureus; settings: for classification of lux screen result against qRT-PCR (true/false repressor or stimulator): in the presence of oxacillin; for Effect on vraSR Transcription: With oxacillin: qRT-PCR of vraR, compound 10 μM + oxacillin 2 μg/mL
diverse MRSA strains = assay: MIC of oxacillin with a single concentration of compound in multiple MRSA strains; assay type: cell-based, Staphylococcus aureus; settings: for MIC 80 of Ox in presence of compound: panel of 11 MRSA isolates, clom 3.8 μM, gos 15 μM, pyr 0.5 μM; for MIC50 of oxacillin in the presence of compound / MIC80 of oxacillin in the presence of compound / fold decrease in the oxacillin MIC50: panel of strains; for fold decrease in the oxacillin MIC50: with compound against oxacillin alone
Description: Testing potentiation of oxacillin by compounds in multiple MRSA strains: In order to be considered a synergistic agent in therapy of MRSA infection, it must be effective as a potentiator in diverse MRSA strains. To determine whether the oxacillin potentiators were effective against MRSA strains besides USA300, a single effective concentration of three compounds that were not known as antibiotics—gossypol, pyrvinium and clomiphene—were tested against multiple MRSA genetic backgrounds. Each compound was tested at a single optimal concentration, determined in the checkerboard assays, in combination with various concentrations of oxacillin. The strains included in this panel were from diverse genetic backgrounds as determined by multilocus sequence type (MLST) and contained a variety of SCCmec types. […] The MIC80 was […] for clomiphene, gossypol, and pyrvinium, respectively.

[3] = test system: vraSR transcription (Pvra::lux); assay type: cell-based, Staphylococcus aureus; settings: compound 10 μM + oxacillin 2 μg/mL
Method in brief: (§1)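 Secondary screen: compound at 10 μM plus oxacillin 2 μg/mL, four biological replicates, luminescence read every 15 minutes. RG and RL are OD600 or max LU with compound plus oxacillin over pooled same-plate oxacillin controls; RL <0.8 repressor, >1.2 stimulator, 0.80-1.2 neutral.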

[4] = test system: MRSA strain USA300 Pvra-lux; assay type: cell-based, Staphylococcus aureus; settings: compound 10 μM + oxacillin 2 μg/mL
Method in brief: as §1

VISA 2283 = assay: microbe, parasite or virus in culture; assay type: cell-based, Staphylococcus aureus; set-up: MIC (in combination) Van+: unit not given beside the values; settings: for MIC: Staphylococcus aureus, read-out: MIC compound; for Synergy category: with vancomycin
Source text: (§2) As shown in the analysis of the checkerboard assays (Table 6), gossypol fully potentiated vancomycin (FIC i<0.5) in hVISA, VISA, VRS2 and VRS1. […] Clomiphene partially potentiated vancomycin in hVISA, VISA, and VRS1 and it fully potentiated in strain VRS2.

VRS1 = assay: microbe, parasite or virus in culture; assay type: cell-based, Staphylococcus aureus; settings: for MIC: Staphylococcus aureus, read-out: MIC compound; for Synergy category: with vancomycin
Source text: as §2

VRS2 = assay: microbe, parasite or virus in culture; assay type: cell-based, Staphylococcus aureus; settings: for MIC: Staphylococcus aureus, read-out: MIC compound
Source text: as §2

hVISA 2275 = assay: microbe, parasite or virus in culture; assay type: cell-based, Staphylococcus aureus; settings: for MIC: Staphylococcus aureus, read-out: MIC compound; for Synergy category: with vancomycin
Source text: as §2

[5] = test system: MRSA strain USA300-isolate 923; assay: Checkerboard MIC testing of compounds with oxacillin; assay type: cell-based, Staphylococcus aureus; settings: for oxacillin MIC: strain 923, 24 h; for change of the MIC of oxacillin with compound concentration: strain 923, checkerboard; for bactericidal effect of oxacillin (MBC, >99.9% killing): strain 923, wells with FICi≦0.5 spotted on TSA

In the case of `Cc1cc2c(C(C)C)c(O)c(O)c(C=O)c2c(O)c1-c1c(C)cc2c(C(C)C)c(O)c(O)c(C=O)c2c1O` [Gossypol, 2,2′-bis-(Formyl-1,6,7-trihydroxy-5-isopropyl-3-methylnaphthalene)], the “primary screen category by effect on growth of MRSA strain 923” value [1] was “strong growth inhibitors on their own”, the “FIC Compound” value (MRSA strain 8004-01) was “.5” and the “FIC Ox” value (MRSA strain 8004-01) was “.06”. For the same molecule, the MIC cmpd alone (MRSA strain 8004-01) was 40, the “MIC cmpd +” value (MRSA strain 8004-01) was 20 µg/mL and the FICi (MRSA strain 8004-01) was 0.56. The FICi (MRSA strain 8004-01; listed as Gos) was “.56”, the “MIC OX (+)” value (MRSA strain 8004-01) was 32 and the “primary screen category by effect on vraSR (Pvra-lux luminescence)” value [2] was “repressed Pvra::lux in both primary screens”. The “classification of lux screen result against qRT-PCR (true/false repressor or stimulator)” value (vraR transcription) was “true vraSR expression repressors”, the “Effect on vraSR Transcription: With oxacillin” value (vraR transcription) was “vraR inhibitors; also recorded: repress” and the “MIC 80 of Ox in presence of compound” value (diverse MRSA strains) was 8 µg/mL. For the same molecule, the “MIC50 of oxacillin in the presence of compound” value (diverse MRSA strains) was 0.5 µg/mL, the “MIC80 of oxacillin in the presence of compound” value (diverse MRSA strains) was 0.008 µg/mL and the “fold decrease in the oxacillin MIC50” value (diverse MRSA strains) was 32 fold. For the same molecule, the “Effect on vraSR transcription” value [3] was “repress (“vraSR repressors” (mean RL of <0.8))”, the “RL avg (relative luminescence)” value ([3]; ratio of LU to oxacillin alone, four runs) was 0.11 and the OD600 category [4] was “inhibited (of <0.8 were classified as oxacillin synergists or potentiators)”. For the same molecule, the “RG avg (relative growth)” value ([4]; ratio of OD600 to oxacillin alone, four runs) was 0.16, the MIC (VISA 2283; VISA) was 10.4 µg/mL and the Synergy category (VISA 2283; VISA 2283) was “fully potentiated (fully potentiated vancomycin (FIC i<0.5))”. For the same molecule, the Synergy category (VISA 2283; VISA 2283, listed as Gos) was “partial (partially potentiated vancomycin (FIC i>0.5 and <1.0))”, the MIC (VRS1) was 20.8 µg/mL and the Synergy category (VRS1; VRS1, listed as Gos) was “synergistic (fully potentiated vancomycin (FIC i<0.5))”. The MIC (VRS2) was 5.2 µg/mL, the “FICi V + compound” value (VRS2; VRS2) was 0.31 and the “Van FIC” value (VRS2; VRS2) was 0.06. For the same molecule, the “compound FIC” value (VRS2; VRS2) was 0.25, the “fold decrease Van MIC” value (VRS2; VRS2) was 16 fold and the “MIC (in combination) compound+” value (VRS2; VRS2, compound MIC with the indicated Van concentration) was 1.3. For the same molecule, the Synergy category (VRS2; VRS2, with vancomycin, listed as Gos) was “synergistic (fully potentiated vancomycin (FIC i<0.5))”, the MIC (hVISA 2275) was 10.4 µg/mL and the “FICi V + compound” value (hVISA 2275; hVISA 2275) was 0.38. For the same molecule, the “Van FIC” value (hVISA 2275; hVISA 2275) was 0.25, the “compound FIC” value (hVISA 2275; hVISA 2275) was 0.125 and the “fold decrease Van MIC” value (hVISA 2275; hVISA 2275) was 4 fold. The “MIC (in combination) compound+” value (hVISA 2275; hVISA 2275, compound MIC with the indicated Van concentration) was 1.3, the Synergy category (hVISA 2275; hVISA 2275) was “fully potentiated (fully potentiated vancomycin (FIC i<0.5))” and the Synergy category (hVISA 2275; hVISA 2275, listed as Gos) was “synergistic (fully potentiated vancomycin (FIC i<0.5))”. For the same molecule, the “oxacillin MIC” value ([5]; compound 0.25 μM) was 32 µg/mL, the “oxacillin MIC” value ([5]; compound 0.5 μM) was 32 µg/mL and the “oxacillin MIC” value ([5]; compound 1 μM) was 16 µg/mL. The “oxacillin MIC” value ([5]; compound 2 μM) was 4 µg/mL, the “oxacillin MIC” value ([5]; compound 4 μM) was 2 µg/mL and the “oxacillin MIC” value ([5]; compound 8 μM) was 2 µg/mL. For the same molecule, the “oxacillin MIC” value ([5]; compound 16 μM) was 2 µg/mL, the “change of the MIC of oxacillin with compound concentration” value [5] was “dose dependent decrease” and the “bactericidal effect of oxacillin (MBC, >99.9% killing)” value [5] was “increased the bactericidal effect of oxacillin”.
With `CCN(CC)CCOc1ccc(/C(=C(/Cl)c2ccccc2)c2ccccc2)cc1` [Clomiphene citrate (Z,E), 2-(4-(2-chloro-1,2-diphenylethenyl)phenoxy)-N,N-diethyl-ethanamine] the “FIC Compound” value (MRSA strain 8004-01) was 0.5, the “FIC Ox” value (MRSA strain 8004-01) was “.03” and the MIC cmpd alone (MRSA strain 8004-01) was 10.4. For the same molecule, the “MIC cmpd +” value (MRSA strain 8004-01) was 5.2 µg/mL, the FICi (MRSA strain 8004-01) was 0.53 and the “MIC OX (+)” value (MRSA strain 8004-01) was 16. For the same molecule, the “classification of lux screen result against qRT-PCR (true/false repressor or stimulator)” value (vraR transcription) was “true vraSR expression repressors”, the “Effect on vraSR Transcription: With oxacillin” value (vraR transcription; listed as clomifene) was “vraR inhibitors; also recorded: repress” and the “MIC 80 of Ox in presence of compound” value (diverse MRSA strains) was 2 µg/mL. The “MIC50 of oxacillin in the presence of compound” value (diverse MRSA strains) was 0.5 µg/mL, the “MIC80 of oxacillin in the presence of compound” value (diverse MRSA strains) was 0.002 µg/mL and the “fold decrease in the oxacillin MIC50” value (diverse MRSA strains) was 32 fold. For the same molecule, the MIC (VISA 2283; VISA 2283, compound alone) was 12 µg/mL, the “FICi V + compound” value (VISA 2283; VISA 2283) was 0.75 and the “Van FIC” value (VISA 2283; VISA 2283) was 0.5. The “compound FIC” value (VISA 2283; VISA 2283) was 0.25, the “fold decrease Van MIC” value (VISA 2283; VISA 2283) was 2 fold and the “MIC (in combination) compound+” value (VISA 2283; VISA 2283, compound MIC with the indicated Van concentration) was 3. The “MIC (in combination) Van+” value (VISA 2283; VISA 2283, vancomycin MIC in combination with compound) was 4, the Synergy category (VISA 2283; VISA 2283) was “partially potentiated (partially potentiated vancomycin (FIC i>0.5 and <1.0))” and the Synergy category (VISA 2283; VISA 2283, listed as Clo) was “partial (partially potentiated vancomycin (FIC i>0.5 and <1.0))”. For the same molecule, the MIC (VRS1; VRS1, compound alone) was 12 µg/mL, the “FICi V + compound” value (VRS1; VRS1) was 0.75 and the Synergy category (VRS1; VRS1) was “partially potentiated (partially potentiated vancomycin (FIC i>0.5 and <1.0))”. For the same molecule, the Synergy category (VRS1; VRS1, listed as Clo) was “partial (partially potentiated vancomycin (FIC i>0.5 and <1.0))”, the MIC (VRS2; VRS2, compound alone) was 12 µg/mL and the MIC (hVISA 2275; hVISA 2275, compound alone) was 12 µg/mL. For the same molecule, the Synergy category (hVISA 2275; hVISA 2275, listed as Clo) was “partial (partially potentiated vancomycin (FIC i>0.5 and <1.0))”, the “oxacillin MIC” value ([5]; compound 0.25 μM) was 32 µg/mL and the “oxacillin MIC” value ([5]; compound 0.5 μM) was 16 µg/mL. For the same molecule, the “oxacillin MIC” value ([5]; compound 1 μM) was 32 µg/mL, the “oxacillin MIC” value ([5]; compound 2 μM) was 32 µg/mL and the “oxacillin MIC” value ([5]; compound 4 μM) was 8 µg/mL. For the same molecule, the “oxacillin MIC” value ([5]; compound 8 μM) was 8 µg/mL, the “oxacillin MIC” value ([5]; compound 16 μM) was 2 µg/mL and the “change of the MIC of oxacillin with compound concentration” value [5] was “dose dependent decrease”. The “bactericidal effect of oxacillin (MBC, >99.9% killing)” value [5] was “increased the bactericidal effect of oxacillin”.
